The values below come from paper PMC9409351, “Differential Ganglioside and Cholesterol Depletion by Various Cyclodextrin Derivatives and Their Effect on Synaptosomal Glutamate Release” (International Journal of Molecular Sciences, 2022).

Series [1] has as its system rat cerebral synaptosomes. The series can be described thus: Membrane integrity by LDH release assay. The class given is cell-based. Conditions: for IC50: 40 min exposure, LDH release as percentage of total LDH (Triton X-100 lysis); for Maximal effect (plateau) of LDH release: percentage of total LDH content. The protocol: Adult male Wistar rats purchased from Toxi-Coop Ltd. (Budapest, Hungary) were used in the experiments. Cerebral synaptosomes were prepared according to Modi and co-workers with the following modifications. Animals were decapitated and the brain was removed rapidly. Isotonic sucrose buffer (0.32 M sucrose, 4 mM HEPES-NaOH, pH 7.4) was used to homogenize the cerebrum with a Potter S Homogenizer (B. Braun, Melsungen, Germany) with 15 strokes at 1000 rpm. The homogenate was centrifuged (1500× g, 10 min, 4 °C) and the pellet was resuspended in sucrose buffer and centrifuged with the same parameters again. The two supernatants were combined and centrifuged (20,000× g, 10 min, 4 °C) to pellet the crude synaptosomes. […] Synaptosomes were stored frozen using cryopreservation buffer and the slow freezing method to preserve their physiological state and integrity. Briefly, synaptosome pellets were resuspended in isotonic sucrose buffer containing 10% DMSO (v/v) and 10% FBS (v/v). To slow down the freezing process at −80 °C, synaptosomes were placed in a 3 cm thick-walled polystyrene box with a lid. Synaptosomes were stored at −80 °C until use. Immediately prior to the experiments, synaptosomes were rapidly thawed in a 37 °C water bath and pelleted by centrifugation (20,000× g, 10 min, 4 °C) to remove the cryopreservation buffer. […] For all types of experiments, except for the glutamate release measurements, vehicle-treated (control) and CD-treated synaptosomes were incubated in 500 μL HEPES-glucose buffer with or without CDs, respectively, for 40 min at 37 °C. […] After incubation, the synaptosomes were centrifuged (20,000× g, 5 min, 4 °C) and used immediately for further analysis. A slightly different incubation method used in the glutamate release measurements is described in the corresponding section. Across all types of experiments, osmolarities of the CD solutions were adjusted and they were between 290 and 310 mOsm. At least three parallel measurements were carried out. The membrane integrity of the synaptosomes was measured by the CytoTox-ONE Homogeneous Membrane Integrity Assay (Promega, Madison, WI, USA) with minor modifications. The assay measures the release of the lactate dehydrogenase (LDH) enzyme from synaptosomes with damaged membranes. […] Both the supernatant and lysis samples were diluted 10-fold. The LDH activity was then assessed according to the manufacturer’s instructions and the fluorescence was measured by a Varioskan LUX multimode microplate reader (Thermo Fisher Scientific) at 530/590 nm.
In general terms: LDH in the medium is a marker of cell lysis.

Series [2] relates to rat cerebral synaptosomes. The series is described as follows: Basal and 4-aminopyridine-evoked glutamate release from synaptosomes (CE-LIF). The class given is cell-based. Conditions: 10 mM DIMEB, 33 mM HPBCD, 26 mM RAMEA, 85 mM HPACD; 40 min exposure; 1 mM 4-AP, 8 min. The protocol: After thawing and centrifugation, the cryopreserved synaptosomes were resuspended in isotonic HEPES-glucose buffer. Synaptosomal suspensions corresponding to 10 mg of synaptosomes were centrifuged to an 8-well strip plate (15 min, 2500× g, 4 °C) and the supernatant was discarded. Vehicle-treated (control) and CD-treated synaptosomes were incubated in 200 μL HEPES-glucose buffer with or without CDs, respectively, for 40 min at 37 °C. […] After incubation, the supernatant was replaced with fresh HEPES-glucose buffer containing 40 µM DL-TBOA (a competitive, non-transportable blocker of excitatory amino acid transporters that inhibits the reuptake of released glutamate) and equilibrated for 2 × 10 min at 37 °C with buffer replacement. After equilibration, the buffer was replaced by fresh HEPES-glucose buffer in the case of unstimulated groups. […] Following stimulation, aliquots were taken from the buffer at 8 min and stored at −20 °C until CE analysis. The glutamate content of the aliquots was analyzed by a capillary electrophoresis-laser induced fluorescence method developed in our laboratory. Briefly, samples were subjected to derivatization with NBD-F (1 mg/mL final concentration) in 20 mM borate buffer, pH 8.5 for 20 min at 65 °C. […] Glutamate release was normalized to the baseline release from the vehicle-treated, unstimulated synaptosomes. Data were analyzed by GraphPad Prism 8 (GraphPad Software, La Jolla, CA, USA). Concentration–response curves were constructed by the nonlinear regression method. One-way ANOVA followed by Bonferroni’s post hoc test was used for the data analysis in the case of the glutamate release experiments. All data are presented as means ± SEM of at least three parallel measurements. Differences were considered significant if p < 0.05.

Series [3] concerns rat cerebral synaptosomes. The series is described as follows: Resazurin reduction viability assay. In kind it is cell-based. Conditions: for IC50 / Concentration with significant decrease in viability / metabolic activity: 40 min exposure; for IC50: percentage of vehicle-treated synaptosomes; for Concentration with significant decrease in viability / metabolic activity: resazurin reduction. The protocol:
Adult male Wistar rats purchased from Toxi-Coop Ltd. (Budapest, Hungary) were used in the experiments. Cerebral synaptosomes were prepared according to Modi and co-workers with the following modifications. Animals were decapitated and the brain was removed rapidly. Isotonic sucrose buffer (0.32 M sucrose, 4 mM HEPES-NaOH, pH 7.4) was used to homogenize the cerebrum with a Potter S Homogenizer (B. Braun, Melsungen, Germany) with 15 strokes at 1000 rpm. The homogenate was centrifuged (1500× g, 10 min, 4 °C) and the pellet was resuspended in sucrose buffer and centrifuged with the same parameters again. The two supernatants were combined and centrifuged (20,000× g, 10 min, 4 °C) to pellet the crude synaptosomes. […] Synaptosomes were stored frozen using cryopreservation buffer and the slow freezing method to preserve their physiological state and integrity. Briefly, synaptosome pellets were resuspended in isotonic sucrose buffer containing 10% DMSO (v/v) and 10% FBS (v/v). To slow down the freezing process at −80 °C, synaptosomes were placed in a 3 cm thick-walled polystyrene box with a lid. Synaptosomes were stored at −80 °C until use. Immediately prior to the experiments, synaptosomes were rapidly thawed in a 37 °C water bath and pelleted by centrifugation (20,000× g, 10 min, 4 °C) to remove the cryopreservation buffer. […] For all types of experiments, except for the glutamate release measurements, vehicle-treated (control) and CD-treated synaptosomes were incubated in 500 μL HEPES-glucose buffer with or without CDs, respectively, for 40 min at 37 °C. […] After incubation, the synaptosomes were centrifuged (20,000× g, 5 min, 4 °C) and used immediately for further analysis. A slightly different incubation method used in the glutamate release measurements is described in the corresponding section. Across all types of experiments, osmolarities of the CD solutions were adjusted and they were between 290 and 310 mOsm. At least three parallel measurements were carried out. Viability of the rat cerebral synaptosomes was measured by the Resazurin Cell Viability Kit (Cell Signaling Technology Inc., Danvers, MA, USA) with minor modifications. The assay was based on the reduction in the nonfluorescent resazurin to highly fluorescent resorufin by intracellular dehydrogenase enzymes. Briefly, after CD treatments, 2 mg of the synaptosomes were centrifuged (20,000× g, 5 min, 4 °C) and the supernatant was discarded. […] After 25 min of incubation, synaptosomes were centrifuged (20,000× g, 5 min, 4 °C). Fluorescence of the supernatant was measured with a Varioskan LUX multimode microplate reader (Thermo Fisher Scientific) at 530/590 nm. Viability of the CD-treated synaptosomes was calculated as the percentage of vehicle-treated control synaptosomes.
In general terms: Alamar Blue is a resazurin reagent that responds to reducing activity.

Series [4] has as its system GM2 and GM3 immunoreactivity. More on the design: method as in PMID 27231706. The note with it: NPC mouse model; cited from earlier work.

By IC50 is commonly meant the point on the concentration scale where inhibition reaches its midpoint. A higher IC50 goes with a need for much substance. Turning to “randomly methylated alpha-cyclodextrin [RAMEA]”, the IC50 in series [1] is > 60 mM. Moreover, the “Concentration with influence on membrane integrity” value in series [1] (LDH release, highest tested concentration) was 100000 µM. The “4-AP-evoked (stimulated) glutamate release” value (shortened to “4-AP-evoked”) in series [2] was “not detected”. In series [3], the concentration for half-maximal inhibition (IC50) is ~90 mM and the “Concentration with significant decrease in viability / metabolic activity” value turned out to be 100000 µM.
For the compound “(2-hydroxypropyl)-alpha-cyclodextrin [HPACD]”, the IC50 in series [1] was > 100 mM. Besides, the “Accumulation of GM2 and GM3 immunoreactivity” value in series [4] is “much less effective compared to HPBCD”. The “4-AP-evoked” value in series [2] was “not detected”.
`COC[C@H]1O[C@@H]2O[C@H]3[C@H](O)[C@@H](OC)[C@@H](O[C@H]4[C@H](O)[C@@H](OC)[C@@H](O[C@H]5[C@H](O)[C@@H](OC)[C@@H](O[C@H]6[C@H](O)[C@@H](OC)[C@@H](O[C@H]7[C@H](O)[C@@H](OC)[C@@H](O[C@H]8[C@H](O)[C@@H](OC)[C@@H](O[C@H]1[C@H](O)[C@H]2OC)O[C@@H]8COC)O[C@@H]7COC)O[C@@H]6COC)O[C@@H]5COC)O[C@@H]4COC)O[C@@H]3COC` [DIMEB, heptakis(2,6-di-O-methyl)-beta-cyclodextrin]: in series [1], the midpoint of inhibition, the IC50, lay at 18.3 mM and the “Maximal effect (plateau) of LDH release” value is recorded as “about 60%”. For the same compound, the “4-AP-evoked” value in series [2] is listed as “not detected”. In series [3] (60 mM), the “Viability at 60 mM” value is on record as “total loss of viability”. In series [3], the midpoint of inhibition, the IC50, lay at 26.5 mM and the “Concentration with significant decrease in viability / metabolic activity” value is reported as “higher than 10 mM”.
For the compound `CC(O)COC[C@H]1O[C@@H]2O[C@H]3[C@H](O)[C@@H](O)[C@@H](O[C@H]4[C@H](O)[C@@H](O)[C@@H](O[C@H]5[C@H](O)[C@@H](O)[C@@H](O[C@H]6[C@H](O)[C@@H](O)[C@@H](O[C@H]7[C@H](O)[C@@H](O)[C@@H](O[C@H]8[C@H](O)[C@@H](O)[C@@H](O[C@H]1[C@H](O)[C@H]2O)O[C@@H]8COCC(C)O)O[C@@H]7COCC(C)O)O[C@@H]6COCC(C)O)O[C@@H]5COCC(C)O)O[C@@H]4COCC(C)O)O[C@@H]3COCC(C)O` (stereo partly drawn) [HPBCD, (2-hydroxypropyl)-beta-cyclodextrin], the 50% inhibitory concentration (IC50) in series [1] (Rattus norvegicus, 40 min) was 31 mM; in series [3] (Rattus norvegicus, 40 min), > 100 mM. The “Maximal effect (plateau) of LDH release” value in series [1] was 43%. Further, in series [4], the “Accumulation of GM2 and GM3 immunoreactivity” value was “reduces the accumulation of GM2 and GM3 immunoreactivity”. Besides, in series [2], the “4-AP-evoked” value is “still evoked glutamate release”. Moreover, the “Concentration with significant decrease in viability / metabolic activity” value in series [3] worked out at 100000 µM.
